Relative viability data for eight cell lines are collected here from the supplement of paper PMC10307832.

Common to all, as to experiment: relative viability (nuclei count vs DMSO), 5 days (fraction); higher = more cells survive
Compound in the assay “MK-8033 + Pictilisib”: Cn1cc(-c2cnc3ccc4ccc(CS(=O)(=O)NCc5ccccn5)cc4c(=O)c3c2)cn1 [MK-8033] + CS(=O)(=O)N1CCN(Cc2cc3nc(-c4cccc5[nH]ncc45)nc(N4CCOCC4)c3s2)CC1 [Pictilisib] (partner 1 µM)
In short, it runs like this:
(§1)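 Relative viability divides the nuclei count in treated wells by that in vehicle wells. Lung cancer cell lines were seeded in 1536-well plates, dosed by pin tool the next day, and fixed and stained after 5 days in one step with final 0.05% Triton X-100, 1% formaldehyde and 1 ug/ml Hoechst. Dosing was a single drug or a fixed anchor-drug dose plus five library-drug doses (not always all listed) in √10 steps, and values are medians of duplicate plates imaged at 4×.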

Compound in the assay “Irinotecan + OSI-027”: CCc1c2c(nc3ccc(OC(=O)N4CCC(N5CCCCC5)CC4)cc13)-c1cc3c(c(=O)n1C2)COC(=O)[C@]3(O)CC [Irinotecan] + COc1cccc2cc(-c3nc([C@H]4CC[C@H](C(=O)O)CC4)n4ncnc(N)c34)[nH]c12 [OSI-027] (partner 0.5 µM)
The essentials:
as §1

Compound in the assay “RU-SKI 43 + Tozasertib”: CC[C@@H](C)CNCC(=O)N1CCC2=C([C@@H]1COC3=CC=CC(=C3)C)C=CS2 [RU-SKI 43] + Cc1cc(Nc2cc(N3CCN(C)CC3)nc(Sc3ccc(NC(=O)C4CC4)cc3)n2)n[nH]1 [Tozasertib] (partner 0.1 µM)
The essentials: as §1

Compound in the assay “MK-8033 + Vorinostat”: Cn1cc(-c2cnc3ccc4ccc(CS(=O)(=O)NCc5ccccn5)cc4c(=O)c3c2)cn1 [MK-8033] + O=C(CCCCCCC(=O)Nc1ccccc1)NO [Vorinostat] (partner 1 µM)
The essentials:
as §1

On to LK-2, for which the relative viability with MK-8033 + Pictilisib (first compound 0.02 µM) came out at 0.629; with MK-8033 + Pictilisib (first compound 0.06325 µM) it was 0.452; with MK-8033 + Pictilisib (first compound 0.2 µM), 0.535; in the assay with MK-8033 + Pictilisib (first compound 0.6325 µM) it was 0.621; with MK-8033 + Pictilisib (first compound 2 µM) it was 0.606; in the assay with Irinotecan + OSI-027 (first compound 0.6325 µM), 0.162. Further, the relative viability was found to be 0.2 in the assay with Irinotecan + OSI-027 (first compound 2 µM); 0.237 with Irinotecan + OSI-027 (first compound 6.325 µM); 0.253 in the assay with Irinotecan + OSI-027 (first compound 20 µM); 0.186 in the assay with RU-SKI 43 + Tozasertib (first compound 0.1 µM); 0.156 with RU-SKI 43 + Tozasertib (first compound 0.3162 µM); 0.165 with RU-SKI 43 + Tozasertib (first compound 1 µM). Further, the relative viability with RU-SKI 43 + Tozasertib (first compound 3.162 µM) came out at 0.181; in the assay with RU-SKI 43 + Tozasertib (first compound 10 µM) it was 0.171; with MK-8033 + Vorinostat (first compound 0.02 µM), 0.245; with MK-8033 + Vorinostat (first compound 0.06325 µM), 0.259; with MK-8033 + Vorinostat (first compound 0.2 µM), 0.397; with MK-8033 + Vorinostat (first compound 0.6325 µM) it was 0.307. Moreover, the relative viability in the assay with MK-8033 + Vorinostat (first compound 2 µM) was 0.357.

Take LOU-NH91: the relative viability was determined as 0.531 in the assay with MK-8033 + Pictilisib (first compound 0.02 µM); 0.498 with MK-8033 + Pictilisib (first compound 0.2 µM); 0.548 in the assay with MK-8033 + Pictilisib (first compound 0.6325 µM); 0.506 with MK-8033 + Pictilisib (first compound 2 µM); 0.688 with Irinotecan + OSI-027 (first compound 0.6325 µM); 0.688 in the assay with Irinotecan + OSI-027 (first compound 2 µM). Besides, the relative viability turned out to be 0.386 with Irinotecan + OSI-027 (first compound 6.325 µM); 0.365 with Irinotecan + OSI-027 (first compound 20 µM); 0.659 with RU-SKI 43 + Tozasertib (first compound 0.1 µM); 0.646 with RU-SKI 43 + Tozasertib (first compound 0.3162 µM); 0.672 with RU-SKI 43 + Tozasertib (first compound 1 µM); 0.702 in the assay with RU-SKI 43 + Tozasertib (first compound 3.162 µM). For the same cell line, the relative viability with RU-SKI 43 + Tozasertib (first compound 10 µM) was determined as 0.6; in the assay with MK-8033 + Vorinostat (first compound 0.02 µM) it was 0.923; with MK-8033 + Vorinostat (first compound 0.06325 µM), 0.638; with MK-8033 + Vorinostat (first compound 0.2 µM), 0.835; in the assay with MK-8033 + Vorinostat (first compound 0.6325 µM) it was 0.86; with MK-8033 + Vorinostat (first compound 2 µM) it was 0.92.

For the cell line LU99A, the relative viability in the assay with MK-8033 + Pictilisib (first compound 0.02 µM) came to 0.331; with MK-8033 + Pictilisib (first compound 0.06325 µM), 0.275; in the assay with MK-8033 + Pictilisib (first compound 0.2 µM), 0.318; with MK-8033 + Pictilisib (first compound 0.6325 µM), 0.29; with MK-8033 + Pictilisib (first compound 2 µM), 0.32; with Irinotecan + OSI-027 (first compound 0.6325 µM), 0.202. For the same cell line, the relative viability with Irinotecan + OSI-027 (first compound 2 µM) was 0.243; with Irinotecan + OSI-027 (first compound 6.325 µM) it was 0.181; in the assay with Irinotecan + OSI-027 (first compound 20 µM), 0.242; with RU-SKI 43 + Tozasertib (first compound 0.1 µM) it was 0.255; with RU-SKI 43 + Tozasertib (first compound 0.3162 µM), 0.234; in the assay with RU-SKI 43 + Tozasertib (first compound 1 µM), 0.279. The relative viability was 0.202 with RU-SKI 43 + Tozasertib (first compound 3.162 µM); 0.227 with RU-SKI 43 + Tozasertib (first compound 10 µM); 0.511 with MK-8033 + Vorinostat (first compound 0.02 µM); 0.495 in the assay with MK-8033 + Vorinostat (first compound 0.06325 µM); 0.565 in the assay with MK-8033 + Vorinostat (first compound 0.2 µM); 0.53 in the assay with MK-8033 + Vorinostat (first compound 0.6325 µM). For the same cell line, the relative viability in the assay with MK-8033 + Vorinostat (first compound 2 µM) is 0.433.

As for LXF-289, the relative viability worked out at 0.789 with MK-8033 + Pictilisib (first compound 0.02 µM); 0.64 with MK-8033 + Pictilisib (first compound 0.06325 µM); 0.721 with MK-8033 + Pictilisib (first compound 0.2 µM); 0.734 with MK-8033 + Pictilisib (first compound 0.6325 µM); 0.823 with MK-8033 + Pictilisib (first compound 2 µM); 0.472 with Irinotecan + OSI-027 (first compound 0.6325 µM). The relative viability with Irinotecan + OSI-027 (first compound 2 µM) amounted to 0.797; in the assay with Irinotecan + OSI-027 (first compound 6.325 µM), 0.421; with Irinotecan + OSI-027 (first compound 20 µM), 0.24; in the assay with RU-SKI 43 + Tozasertib (first compound 0.1 µM) it was 0.229; in the assay with RU-SKI 43 + Tozasertib (first compound 0.3162 µM), 0.249; with RU-SKI 43 + Tozasertib (first compound 1 µM), 0.21. Moreover, the relative viability worked out at 0.2 with RU-SKI 43 + Tozasertib (first compound 3.162 µM); 0.183 with RU-SKI 43 + Tozasertib (first compound 10 µM); 0.843 with MK-8033 + Vorinostat (first compound 0.02 µM); 0.615 with MK-8033 + Vorinostat (first compound 0.06325 µM); 0.737 with MK-8033 + Vorinostat (first compound 0.2 µM); 0.755 with MK-8033 + Vorinostat (first compound 0.6325 µM). Further, the relative viability with MK-8033 + Vorinostat (first compound 2 µM) came to 0.812.

As to NCI-H23, the relative viability was found to be 0.377 with MK-8033 + Pictilisib (first compound 0.02 µM); 0.397 with MK-8033 + Pictilisib (first compound 0.06325 µM); 0.378 in the assay with MK-8033 + Pictilisib (first compound 0.2 µM); 0.561 in the assay with MK-8033 + Pictilisib (first compound 0.6325 µM); 0.384 with MK-8033 + Pictilisib (first compound 2 µM); 0.327 with Irinotecan + OSI-027 (first compound 0.6325 µM). For the same cell line, the relative viability with Irinotecan + OSI-027 (first compound 2 µM) is 0.603; with Irinotecan + OSI-027 (first compound 6.325 µM), 0.176; with Irinotecan + OSI-027 (first compound 20 µM) it was 0.288; with RU-SKI 43 + Tozasertib (first compound 0.1 µM), 0.394; with RU-SKI 43 + Tozasertib (first compound 0.3162 µM), 0.393; with RU-SKI 43 + Tozasertib (first compound 1 µM), 0.347. Also, the relative viability with RU-SKI 43 + Tozasertib (first compound 3.162 µM) was found to be 0.455; with RU-SKI 43 + Tozasertib (first compound 10 µM) it was 0.297; with MK-8033 + Vorinostat (first compound 0.02 µM), 0.678; in the assay with MK-8033 + Vorinostat (first compound 0.06325 µM) it was 0.455; with MK-8033 + Vorinostat (first compound 0.2 µM), 0.405; with MK-8033 + Vorinostat (first compound 2 µM), 0.587.

Regarding NCI-H322M, the relative viability with MK-8033 + Pictilisib (first compound 0.02 µM) came out at 0.511; with MK-8033 + Pictilisib (first compound 0.06325 µM), 0.438; with MK-8033 + Pictilisib (first compound 0.2 µM), 0.496; in the assay with MK-8033 + Pictilisib (first compound 0.6325 µM), 0.464; with MK-8033 + Pictilisib (first compound 2 µM), 0.523; with Irinotecan + OSI-027 (first compound 0.6325 µM), 0.414. Further, the relative viability with Irinotecan + OSI-027 (first compound 2 µM) was found to be 0.479; in the assay with Irinotecan + OSI-027 (first compound 6.325 µM), 0.521; in the assay with Irinotecan + OSI-027 (first compound 20 µM), 0.216; in the assay with RU-SKI 43 + Tozasertib (first compound 0.1 µM), 0.516; with RU-SKI 43 + Tozasertib (first compound 0.3162 µM), 0.502; with RU-SKI 43 + Tozasertib (first compound 1 µM), 0.47. For the same cell line, the relative viability with RU-SKI 43 + Tozasertib (first compound 3.162 µM) was found to be 0.518; with RU-SKI 43 + Tozasertib (first compound 10 µM), 0.394; with MK-8033 + Vorinostat (first compound 0.02 µM), 1.04; with MK-8033 + Vorinostat (first compound 0.06325 µM) it was 0.774; in the assay with MK-8033 + Vorinostat (first compound 0.2 µM) it was 0.829; with MK-8033 + Vorinostat (first compound 0.6325 µM), 0.966. Besides, the relative viability in the assay with MK-8033 + Vorinostat (first compound 2 µM) stood at 0.888.

On to NCI-H358, for which the relative viability in the assay with MK-8033 + Pictilisib (first compound 0.02 µM) was 0.306; with MK-8033 + Pictilisib (first compound 0.06325 µM), 0.344; with MK-8033 + Pictilisib (first compound 0.2 µM), 0.331; with MK-8033 + Pictilisib (first compound 0.6325 µM) it was 0.395; with MK-8033 + Pictilisib (first compound 2 µM), 0.227; with Irinotecan + OSI-027 (first compound 0.6325 µM), 0.715. Moreover, the relative viability was 0.377 with Irinotecan + OSI-027 (first compound 2 µM); 0.217 with Irinotecan + OSI-027 (first compound 6.325 µM); 0.125 with Irinotecan + OSI-027 (first compound 20 µM); 0.109 with RU-SKI 43 + Tozasertib (first compound 0.1 µM); 0.106 in the assay with RU-SKI 43 + Tozasertib (first compound 0.3162 µM); 0.0941 in the assay with RU-SKI 43 + Tozasertib (first compound 1 µM). The relative viability with RU-SKI 43 + Tozasertib (first compound 3.162 µM) came out at 0.103; in the assay with RU-SKI 43 + Tozasertib (first compound 10 µM), 0.0859; with MK-8033 + Vorinostat (first compound 0.02 µM), 0.79; with MK-8033 + Vorinostat (first compound 0.06325 µM), 0.503; with MK-8033 + Vorinostat (first compound 0.2 µM), 0.579; in the assay with MK-8033 + Vorinostat (first compound 0.6325 µM), 0.712. Besides, in the assay with MK-8033 + Vorinostat (first compound 2 µM), the relative viability turned out to be 0.614.

As for NCI-H441, the relative viability was determined as 0.45 in the assay with MK-8033 + Pictilisib (first compound 0.02 µM); 0.446 in the assay with MK-8033 + Pictilisib (first compound 0.06325 µM); 0.416 with MK-8033 + Pictilisib (first compound 0.2 µM); 0.446 with MK-8033 + Pictilisib (first compound 0.6325 µM); 0.444 in the assay with MK-8033 + Pictilisib (first compound 2 µM); 0.371 with Irinotecan + OSI-027 (first compound 0.6325 µM). Moreover, the relative viability with Irinotecan + OSI-027 (first compound 2 µM) came to 0.448; with Irinotecan + OSI-027 (first compound 6.325 µM), 0.281; with Irinotecan + OSI-027 (first compound 20 µM), 0.327; in the assay with RU-SKI 43 + Tozasertib (first compound 0.1 µM), 0.597; with RU-SKI 43 + Tozasertib (first compound 0.3162 µM) it was 0.542; with RU-SKI 43 + Tozasertib (first compound 1 µM), 0.541. Further, the relative viability came out at 0.736 with RU-SKI 43 + Tozasertib (first compound 3.162 µM); 0.554 with RU-SKI 43 + Tozasertib (first compound 10 µM); 0.795 in the assay with MK-8033 + Vorinostat (first compound 0.02 µM); 0.738 in the assay with MK-8033 + Vorinostat (first compound 0.06325 µM); 0.823 in the assay with MK-8033 + Vorinostat (first compound 0.2 µM); 0.706 with MK-8033 + Vorinostat (first compound 0.6325 µM). Besides, the relative viability with MK-8033 + Vorinostat (first compound 2 µM) was found to be 0.732.
